Experimental data as given in the NIST ThermoML archive (doi:10.1016/j.fluid.2018.04.012).

Assay: xn = mol fraction of the nth substance listed
Details: Liquid, Vibrating tube method

CC(C)OC(C)C [diisopropyl ether] + CC(C)O
mass density [kg/m3]
Details	x2 = 0.1503	x2 = 0.2979	x2 = 0.4228	x2 = 0.5	x2 = 0.6737	x2 = 0.8483
313.15 K, 45000 kPa	–	–	–	–	780.4	791.7
313.15 K, 50000 kPa	759.5	765.4	770.9	774.5	783.9	794.9
313.15 K, 55000 kPa	763.3	769	774.4	778.1	787.3	798.1
313.15 K, 60000 kPa	766.8	772.5	777.8	781.4	790.5	801.2
313.15 K, 65000 kPa	770.2	775.8	781.1	784.7	793.7	804.2
313.15 K, 70000 kPa	773.5	779	784.3	787.7	796.6	807
313.15 K, 80000 kPa	779.6	785.1	790.3	793.6	802.3	812.5
313.15 K, 90000 kPa	785.6	790.9	796	799.3	807.8	817.8
313.15 K, 100000 kPa	791.2	796.3	801.3	804.5	812.9	822.7
313.15 K, 110000 kPa	796.4	801.5	806.4	809.6	817.9	827.5
313.15 K, 120000 kPa	801.3	806.4	811.2	814.4	822.4	832
313.15 K, 130000 kPa	806.2	811.2	815.8	819	826.9	836.3
313.15 K, 140000 kPa	810.9	815.8	820.2	823.5	831.3	840.6
333.15 K, 100 kPa	687.4	694.9	702.4	707	719.4	734.1
333.15 K, 1000 kPa	689	696.4	703.7	708.4	720.7	735.3
333.15 K, 5000 kPa	695.4	702.6	709.5	714.2	726.1	740.2
333.15 K, 10000 kPa	702.7	709.6	716.1	720.7	732.2	745.8
333.15 K, 15000 kPa	709.3	716	722.3	726.8	737.9	751.1
333.15 K, 20000 kPa	715.3	721.8	728	732.3	743.1	755.9
333.15 K, 25000 kPa	720.9	727.3	733.3	737.5	748	760.5
333.15 K, 30000 kPa	726.2	732.4	738.3	742.4	752.6	764.9
333.15 K, 35000 kPa	731.1	737.2	743	747	757	769
333.15 K, 40000 kPa	735.8	741.7	747.4	751.4	761.2	772.9
333.15 K, 45000 kPa	740.2	746	751.7	755.4	765.1	776.6
333.15 K, 50000 kPa	744.4	750.2	755.7	759.4	768.9	780.3
333.15 K, 55000 kPa	748.4	754.1	759.6	763.2	772.6	783.8
333.15 K, 60000 kPa	752.2	757.8	763.3	766.8	776.1	787
333.15 K, 65000 kPa	756	761.5	766.9	770.4	779.4	790.3
333.15 K, 70000 kPa	759.5	765	770.3	773.7	782.7	793.5
333.15 K, 80000 kPa	766.3	771.6	776.8	780.1	788.9	799.3
333.15 K, 90000 kPa	772.6	777.8	782.9	786.2	794.8	805
333.15 K, 100000 kPa	778.5	783.6	788.6	791.8	800.2	810.2
333.15 K, 110000 kPa	784.1	789.2	794	797.3	805.5	815.3
333.15 K, 120000 kPa	789.4	794.4	799.1	802.3	810.4	820.1
333.15 K, 130000 kPa	794.5	799.4	804	–	–	–
